According to paper PMC4229968, “The Inhibition of the Components from Shengmai Injection towards UDP-Glucuronosyltransferase” (Evidence-based Complementary and Alternative Medicine : eCAM, 2014):

Assays:
UGT1A4 = molecular target: T1, UGT1A4 (Homo sapiens, UniProt P22310); assay: Recombinant UGT1A4-catalyzed trifluoperazine (TFP) glucuronidation inhibition; type: in vitro ADME; conditions: for activity at 20 min, 100 μM: UGT1A4, 100 μM of compound, TFP substrate (40 μM), read-out: residual activity
T1 construct: purchased BD Gentest Corp. (Woburn, MA, USA); host or cells: baculovirus-infected insect cells
T1 sequence (P22310 29-534): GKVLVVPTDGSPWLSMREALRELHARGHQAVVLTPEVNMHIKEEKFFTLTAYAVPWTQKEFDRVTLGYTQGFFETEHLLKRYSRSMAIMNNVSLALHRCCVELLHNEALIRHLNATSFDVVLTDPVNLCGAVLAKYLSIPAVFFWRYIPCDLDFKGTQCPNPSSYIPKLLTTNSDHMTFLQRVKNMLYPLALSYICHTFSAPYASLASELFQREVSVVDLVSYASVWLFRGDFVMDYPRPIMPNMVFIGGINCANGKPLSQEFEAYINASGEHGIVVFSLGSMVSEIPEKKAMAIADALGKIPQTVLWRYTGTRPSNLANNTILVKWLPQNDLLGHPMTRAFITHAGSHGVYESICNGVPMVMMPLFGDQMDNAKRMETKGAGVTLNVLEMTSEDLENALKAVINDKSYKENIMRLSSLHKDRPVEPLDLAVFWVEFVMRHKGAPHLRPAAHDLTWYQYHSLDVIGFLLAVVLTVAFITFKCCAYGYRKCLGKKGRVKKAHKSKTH
Source text: (§1) 4-Methylumbelliferone (4-MU), 4-methylumbelliferone-β-D-glucuronide (4-MUG), Tris-HCl, 7-hydroxycoumarin, and uridine-5′-diphosphoglucuronic acid (UDPGA) (trisodium salt) were purchased from Sigma-Aldrich (St. Louis, MO). Recombinant human UGT isoforms (UGT1A1, UGT1A3, UGT1A4, UGT1A6, UGT1A7, UGT1A8, UGT1A9, UGT1A10, UGT2B4, UGT2B7, and UGT2B15) expressed in baculovirus-infected insect cells were obtained from BD Gentest Corp. (Woburn, MA, USA). Ophiopogonin D (OD), ophiopogonin D′ (OD′), methylophiopogonanone A (MA), methylophiopogonanone B (MB), and ruscorectal (RU) were purchased from Sichuan Weikeqi Biotechnology Company (Chengdu, Sichuan, China). The purity of these compounds was above 95%. All other reagents were of HPLC grade or of the highest grade commercially available.
Therefore, UGT1A4-catalyzed trifluoperazine (TFP) glucuronidation was carried out to evaluate inhibition of maidong's components towards UGT1A4 activity. As previously reported, TFP (40 μM, near its K m value) was incubated with 0.1 mg/mL recombinant UGT1A4 for 20 min in the presence or absence of maidong's ingredients.
(§2) To determine the inhibition kinetic type and parameters (K i), the reaction velocity (V) was determined at multiple concentrations of maidong's components and 4-MU (or TFP). Dixon plot and Lineweaver-Burk plot were used to fit the data. The inhibition kinetic type was evaluated through determining the intersection point in the Dixon and Lineweaver-Burk plots.
(§3) K m value is the substrate concentration in which the velocity reached half of the maximum velocity (V max) of the reaction. K i value is the inhibition constant.

UGT1A10 = molecular target: T2, UGT1A10 (Homo sapiens, UniProt Q9HAW8); assay: Recombinant UGT1A10-catalyzed 4-MU glucuronidation inhibition; type: in vitro ADME; conditions: for activity at 100 µM: UGT1A10, 100 μM of compound, 4-MU substrate, read-out: residual activity
T2 construct: purchased BD Gentest Corp. (Woburn, MA, USA); host or cells: baculovirus-infected insect cells
T2 sequence (Q9HAW8 26-530): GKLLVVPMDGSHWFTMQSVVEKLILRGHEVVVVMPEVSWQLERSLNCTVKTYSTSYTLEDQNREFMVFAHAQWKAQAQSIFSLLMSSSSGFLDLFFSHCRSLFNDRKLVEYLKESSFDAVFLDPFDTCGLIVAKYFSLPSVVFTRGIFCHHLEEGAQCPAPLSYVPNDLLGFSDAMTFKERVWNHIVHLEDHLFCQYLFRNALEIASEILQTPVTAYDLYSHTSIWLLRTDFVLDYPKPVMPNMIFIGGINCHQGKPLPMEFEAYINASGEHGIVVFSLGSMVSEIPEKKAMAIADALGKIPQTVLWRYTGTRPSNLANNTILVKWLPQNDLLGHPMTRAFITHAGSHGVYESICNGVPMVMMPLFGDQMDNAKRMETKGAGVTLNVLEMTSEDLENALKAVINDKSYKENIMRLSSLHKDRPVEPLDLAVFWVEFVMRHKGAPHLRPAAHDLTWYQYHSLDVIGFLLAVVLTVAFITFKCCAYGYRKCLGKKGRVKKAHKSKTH
Source text: as §1
4-MU, the nonspecific probe substrate for all the UGT isoforms except UGT1A4, was used in the present study to initially screen the inhibition potential of maidong's components towards UGT isoforms as previously reported. In brief, the incubation system (total volume = 200 μL) consisted of recombinant UGTs, 5 mM UDPGA, 5 mM MgCl2, 50 mM Tris-HCl (pH = 7.4), and 4-MU in the absence or presence of different concentrations of maidong's components. The compounds were dissolved in DMSO, and the final concentration of DMSO was below 0.5% (v/v). The used incubation time and protein concentration were previously determined to ensure the reaction rate within the linear range. The 4-MU concentration was equal to known K m or S 50 values for each UGT isoform. After 5 min preincubation at 37°C, the incubation reaction was initiated via adding UDPGA to the mixture system. The reactions were quenched by adding 100 μL acetonitrile with 7-hydroxycoumarin (100 μM) as internal standard. Centrifuged at 20000 ×g for 10 min, an aliquot of supernatant was transferred to an autoinjector vial for HPLC analysis. The HPLC system (Shimadzu, Kyoto, Japan) contained a SCL-10A system controller, two LC-10AT pumps, a SIL-10A autoinjector, and a SPD-10AVP UV detector. Chromatographic separation was carried out using a C18 column (4.6 × 200 mm, 5 μm, Kromasil) at a flow rate of 1 mL/min and UV detector at 316 nm. The mobile phase consisted of acetonitrile (A) and H2O containing 0.5% (v/v) formic acid (B). The following gradient condition was used: 0–15 min, 95–40% B; 15–20 min, 10% B; 20–30 min, 95% B.
as §2, §3

[1] = human, probe trifluoperazine (TFP)
[2] = human, pH 7.4, probe 4-methylumbelliferone (4-MU)

Structure (SMILES)	activity at 20 min, 100 μM (UGT1A4; [1])	activity at 100 µM (UGT1A10; [2])	Ki (UGT1A10; UGT1A10-catalyzed 4-MU glucuronidation, read-out: inhibition kinetic parameter (Ki))	inhibition type (UGT1A10; UGT1A10, Dixon and Lineweaver-Burk plots)	inhibition at 100 µM (UGT1A10; human, pH 7.4, probe 4-methylumbelliferone (4-MU), UGT1A10, at 100 μM, read-out: inhibition percent)	inhibition type (UGT1A4; UGT1A4, TFP glucuronidation, Dixon and Lineweaver-Burk plots)	Ki (UGT1A4; UGT1A4-catalyzed TFP glucuronidation, read-out: inhibition kinetic parameter (Ki))	inhibition at 20 min, 100 µM (UGT1A4; human, probe trifluoperazine (TFP), 40 μM, UGT1A4, at 100 μM, read-out: inhibition percent)
Cc1c(O)c(C)c2c(c1O)C(=O)[C@H](Cc1ccc3c(c1)OCO3)CO2 [MA, methylophiopogonanone A]	70.4 ± 3.8%	70 ± 9.3%						
COc1ccc(C[C@@H]2COc3c(C)c(O)c(C)c(O)c3C2=O)cc1 [MB, methylophiopogonanone B]	81.1 ± 8%	96.9 ± 7.3%						
C[C@@H]1CC[C@@]2(OC1)O[C@H]1C[C@H]3[C@@H]4CC=C5C[C@@H](O)C[C@@H](O[C@@H]6O[C@H](C)[C@H](O)[C@H](O[C@@H]7OC[C@@H](O)[C@H](O)[C@H]7O)[C@H]6O[C@@H]6O[C@@H](C)[C@H](O)[C@@H](O)[C@H]6O)[C@]5(C)[C@H]4CC[C@]3(C)[C@H]1[C@@H]2C [OD, ophiopogonin D]	24.6 ± 1.6%	26.5 ± 1.5%						
C[C@@H]1CC[C@@]2(OC1)O[C@H]1C[C@H]3[C@@H]4CC=C5C[C@@H](O[C@@H]6O[C@H](CO)[C@@H](O)[C@H](O[C@@H]7OC[C@@H](O)[C@H](O)[C@H]7O)[C@H]6O[C@@H]6O[C@@H](C)[C@H](O)[C@@H](O)[C@H]6O)CC[C@]5(C)[C@H]4CC[C@]3(C)[C@H]1[C@@H]2C [OD′, ophiopogonin D′]	21 ± 1.6%	19.8 ± 3.2%	9 µM	noncompetitively inhibited	80.2%			
CC1CCC2(OC1)OC1CC3C4CC=C5CC(O)CC(O)C5(C)C4CCC3(C)C1C2C (stereo not shown) [RU, ruscorectal]	0%	82 ± 5.2%				competitive inhibition	0.02 µM	~100%
